Source: patent EP0465716A1, “Optically active thiazetoquino-line-3-carboxylic acid compound, method for preparation thereof, and a pharmaceutical composition comprising the same” (priority 1990, dated 1992)
Values after ≈ are worked out from the molar mass of the structure shown.

Columns and labels:
Male mice of ddY strain = experiment: Convulsion inducing activity in combination with fenbufen; conditions: thirty minutes after fenbufen 100 mg/kg orally
Protocol: Male mice of ddY strain, 5 weeks old, were used. Fenbufen suspended in 0.5 % carboxymethylcellulose was administered orally at a dose of 100 mg/kg. After thirty minutes, test compounds suspended in 0.5 % carboxymethylcellulose were injected intraperitoneally (i.p.) at a dose of 100 mg/kg or 300 mg/kg.

Enterobacter cloacae 963 = experiment: MIC, twofold agar dilution method (standard laboratory strain); type: cell-based; conditions: Enterobacter cloacae 963, Gram -; 10^6 cfu/ml; 18 hrs at 37 °C
Protocol: (§1) Overnight cultures in Mueller-Hinton broth were suspended by buffered saline gelatin. One loopful of the bacterial suspension (10⁶ or 10⁸ colony-forming units/ml) was incubated onto the plates containing test compounds. The plates were incubated for 18 hrs at 37 °C. The MIC was defined by the lowest concentration of the drug that inhibited visible growth of bacteria.

[1] = tested on: Serratia marcescens IAM 1184; experiment: as above; type: cell-based; conditions: IAM1184; Serratia marcescens IAM 1184, Gram -; 10^6 cfu/ml; 18 hrs at 37 °C
Protocol: as §1

[2] = tested on: Escherichia coli NIHJ JC-2; experiment: as above; type: cell-based; conditions: NIHJJC2; Escherichia coli NIHJ JC-2, Gram -; 10^6 cfu/ml; 18 hrs at 37 °C
Protocol: as §1

[3] = tested on: Staphylococuss aureus FDA 209PJC-1; experiment: as above; type: cell-based; conditions: Staphylococuss aureus FDA 209PJC-1, Gram +; 10^6 cfu/ml; 18 hrs at 37 °C
Protocol: as §1

[4] = tested on: Pseudomonas aeruginosa IFO 3445; experiment: as above; type: cell-based; conditions: IFO3445; Pseudomonas aeruginosa IFO 3445, Gram -; 10^6 cfu/ml; 18 hrs at 37 °C
Protocol: as §1

[5] = tested on: Serratia marcescens HNR 1792; experiment: MIC, twofold agar dilution method (clinically isolated strain); type: cell-based; conditions: HNR1792; Serratia marcescens HNR 1792, Gram -; 10^6 cfu/ml; 18 hrs at 37 °C
Protocol: as §1

[6] = tested on: Enterococcus faecalis HPC 984; experiment: as above; type: cell-based; conditions: HPC984; Enterococcus faecalis HPC 984, Gram +; 10^6 cfu/ml; 18 hrs at 37 °C
Protocol: as §1

[7] = tested on: Klebsiella pneumoniae HNR 828; experiment: as above; type: cell-based; conditions: HNR828; Klebsiella pneumoniae HNR 828, Gram -; 10^6 cfu/ml; 18 hrs at 37 °C
Protocol: as §1

[8] = tested on: Acinetobacter calcoaceticus HNR 916; experiment: as above; type: cell-based; conditions: HNR916; Acinetobacter calcoaceticus HNR 916, Gram -; 10^6 cfu/ml; 18 hrs at 37 °C
Protocol: as §1

[9] = tested on: Staphylococcuss aureus HPC 527; experiment: as above; type: cell-based; conditions: Staphylococcuss aureus HPC 527, Gram +; 10^6 cfu/ml; 18 hrs at 37 °C
Protocol: as §1

[10] = tested on: Enterococcus faecalis HPC 948; experiment: as above; type: cell-based; conditions: HPC948; Enterococcus faecalis HPC 948, Gram +; 10^6 cfu/ml; 18 hrs at 37 °C
Protocol: as §1

[11] = tested on: Pseudomonas aeruginosa HNR 1472; experiment: as above; type: cell-based; conditions: HNR1472; Pseudomonas aeruginosa HNR 1472, Gram -; 10^6 cfu/ml; 18 hrs at 37 °C
Protocol: as §1

[12] = tested on: Serratia marcescens HNR 1544; experiment: as above; type: cell-based; conditions: HNR1544; Serratia marcescens HNR 1544, Gram -; 10^6 cfu/ml; 18 hrs at 37 °C
Protocol: as §1

[13] = tested on: Staphylococcuss aureus HPC 308; experiment: as above; type: cell-based; conditions: Staphylococcuss aureus HPC 308, Gram +; 10^6 cfu/ml; 18 hrs at 37 °C
Protocol: as §1

[14] = tested on: Serratia marcescens HNR 1767; experiment: as above; type: cell-based; conditions: HNR1767; Serratia marcescens HNR 1767, Gram -; 10^6 cfu/ml; 18 hrs at 37 °C
Protocol: as §1

[15] = tested on: Acinetobacter calcoaceticus HNR 904; experiment: as above; type: cell-based; conditions: HNR904; Acinetobacter calcoaceticus HNR 904, Gram -; 10^6 cfu/ml; 18 hrs at 37 °C
Protocol: as §1

[16] = tested on: Enterobacter cloacae HNR 1941; experiment: as above; type: cell-based; conditions: HNR1941; Enterobacter cloacae HNR 1941, Gram -; 10^6 cfu/ml; 18 hrs at 37 °C
Protocol: as §1

[17] = tested on: Klebsiella pneumoniae HNR 858; experiment: as above; type: cell-based; conditions: HNR858; Klebsiella pneumoniae HNR 858, Gram -; 10^6 cfu/ml; 18 hrs at 37 °C
Protocol: as §1

[18] = tested on: Pseudomonas aeruginosa HNR 1489; experiment: as above; type: cell-based; conditions: HNR1489; Pseudomonas aeruginosa HNR 1489, Gram -; 10^6 cfu/ml; 18 hrs at 37 °C
Protocol: as §1

[19] = tested on: Enterobacter cloacae HNR 1939; experiment: as above; type: cell-based; conditions: HNR1939; Enterobacter cloacae HNR 1939, Gram -; 10^6 cfu/ml; 18 hrs at 37 °C
Protocol: as §1

[20] = tested on: Staphylococcuss aureus HPC 292; experiment: as above; type: cell-based; conditions: Staphylococcuss aureus HPC 292, Gram +; 10^6 cfu/ml; 18 hrs at 37 °C
Protocol: as §1

[21] = tested on: Acinetobacter calcoaceticus HNR 939; experiment: as above; type: cell-based; conditions: HNR939; Acinetobacter calcoaceticus HNR 939, Gram -; 10^6 cfu/ml; 18 hrs at 37 °C
Protocol: as §1

[22] = tested on: Pseudomonas aeruginosa HNR 1537; experiment: as above; type: cell-based; conditions: HNR1537; Pseudomonas aeruginosa HNR 1537, Gram -; 10^6 cfu/ml; 18 hrs at 37 °C
Protocol: as §1

[23] = tested on: Enterococcus faecalis HPC 975; experiment: as above; type: cell-based; conditions: HPC975; Enterococcus faecalis HPC 975, Gram +; 10^6 cfu/ml; 18 hrs at 37 °C
Protocol: as §1

[24] = tested on: Klebsiella pneumoniae HNR 869; experiment: as above; type: cell-based; conditions: HNR869; Klebsiella pneumoniae HNR 869, Gram -; 10^6 cfu/ml; 18 hrs at 37 °C
Protocol: as §1

[25] = tested on: Enterobacter cloacae HNR 1946; experiment: as above; type: cell-based; conditions: HNR1946; Enterobacter cloacae HNR 1946, Gram -; 10^6 cfu/ml; 18 hrs at 37 °C
Protocol: as §1

[26] = tested on: Klebsiella pneumoniae PCI-602; experiment: MIC, twofold agar dilution method (standard laboratory strain); type: cell-based; conditions: PCI602; Klebsiella pneumoniae PCI-602, Gram -; 10^6 cfu/ml; 18 hrs at 37 °C; read-out: MIC
Protocol: Minimum inhibitory concentrations (MIC) of test compounds were determined by the twofold agar dilution method (Chemotherapy, 29(1), 76(1981)). Overnight cultures in Mueller-Hinton broth were suspended by buffered saline gelatin. One loopful of the bacterial suspension (10⁶ or 10⁸ colony-forming units/ml) was incubated onto the plates containing test compounds. The plates were incubated for 18 hrs at 37 °C. The MIC was defined by the lowest concentration of the drug that inhibited visible growth of bacteria.

Structure (SMILES) | Number of convulsion induced / Number of animals (Male mice of ddY strain; 100 mg/kg (i.p.)) | MIC (Enterobacter cloacae 963) [µg/mL] | MIC [1] [µg/mL] | MIC [2] [µg/mL] | MIC [3] [µg/mL] | MIC [4] [µg/mL] | MIC [5] [µg/mL] | MIC [6] [µg/mL] | MIC [7] [µg/mL] | MIC [8] [µg/mL] | MIC [9] [µg/mL] | MIC [10] [µg/mL] | MIC [11] [µg/mL] | MIC [12] [µg/mL] | MIC [13] [µg/mL] | MIC [14] [µg/mL] | MIC [15] [µg/mL] | MIC [16] [µg/mL] | MIC [17] [µg/mL] | MIC [18] [µg/mL] | further results
CC1Sc2c(C(=O)O)c(=O)c3cc(F)c(N4CC[C@H](N)C4)c(F)c3n21 (single isomer, unassigned) [Example 18] | 0 / 6 | 0.006 (≈ 0.0163 µM) | 0.012 (≈ 0.0327 µM) | 0.006 (≈ 0.0163 µM) | 0.006 (≈ 0.0163 µM) | 0.025 (≈ 0.068 µM) | 0.78 (≈ 2.12 µM) | 0.05 (≈ 0.136 µM) | 0.78 (≈ 2.12 µM) | 0.025 (≈ 0.068 µM) | 0.012 (≈ 0.0327 µM) | 0.39 (≈ 1.06 µM) | 1.56 (≈ 4.25 µM) | 0.012 (≈ 0.0327 µM) | 0.39 (≈ 1.06 µM) | 3.13 (≈ 8.52 µM) | 3.13 (≈ 8.52 µM) | 1.56 (≈ 4.25 µM) | 0.05 (≈ 0.136 µM) | 0.05 (≈ 0.136 µM) | Number of convulsion induced / Number of animals (Male mice of ddY strain; 300 mg/kg (i.p.)): 0 / 6; MIC [19]: 0.05 µg/mL (≈ 0.136 µM); MIC [20]: 0.78 µg/mL (≈ 2.12 µM); MIC [21]: 0.78 µg/mL (≈ 2.12 µM); MIC [22]: 3.13 µg/mL (≈ 8.52 µM); MIC [23]: 1.56 µg/mL (≈ 4.25 µM); MIC [24]: 0.39 µg/mL (≈ 1.06 µM); MIC [25]: 0.1 µg/mL (≈ 0.272 µM); MIC [26]: ≤ 0.0015 µg/mL
CC1Sc2c(C(=O)O)c(=O)c3cc(F)c(N4CCNCC4)c(F)c3n21 (stereo not shown) [Ref. Drug C, 6,8-difluoro-1-methyl-4-oxo-7-(1-piperazinyl)-1H,4H-[1,3]thiazeto[3,2-a]quinoline-3-carboxylic acid] | 6 / 6 | 0.05 (≈ 0.136 µM) | 0.1 (≈ 0.272 µM) | 0.05 (≈ 0.136 µM) | 0.1 (≈ 0.272 µM) | 0.2 (≈ 0.544 µM) | 3.13 (≈ 8.52 µM) | 0.39 (≈ 1.06 µM) | 3.13 (≈ 8.52 µM) | 0.2 (≈ 0.544 µM) | 0.2 (≈ 0.544 µM) | 3.13 (≈ 8.52 µM) | 6.25 (≈ 17 µM) | 0.1 (≈ 0.272 µM) | 6.25 (≈ 17 µM) | 12.5 (≈ 34 µM) | 25 (≈ 68 µM) | 6.25 (≈ 17 µM) | 0.39 (≈ 1.06 µM) | 0.2 (≈ 0.544 µM) | MIC [19]: 0.39 µg/mL (≈ 1.06 µM); MIC [20]: 25 µg/mL (≈ 68 µM); MIC [21]: 3.13 µg/mL (≈ 8.52 µM); MIC [22]: 12.5 µg/mL (≈ 34 µM); MIC [23]: 50 µg/mL (≈ 136 µM); MIC [24]: 0.78 µg/mL (≈ 2.12 µM); MIC [25]: 0.39 µg/mL (≈ 1.06 µM); MIC [26]: 0.025 µg/mL (≈ 0.068 µM)
CC1Sc2c(C(=O)O)c(=O)c3cc(F)c(N4CC[C@H](N)C4)c(Cl)c3n21 (single isomer, unassigned) [Example 15] | 0 / 6 | 0.012 (≈ 0.0313 µM) | 0.025 (≈ 0.0651 µM) | 0.012 (≈ 0.0313 µM) | 0.025 (≈ 0.0651 µM) | 0.05 (≈ 0.13 µM) | 0.39 (≈ 1.02 µM) | 0.1 (≈ 0.261 µM) | 0.78 (≈ 2.03 µM) | 0.05 (≈ 0.13 µM) | 0.025 (≈ 0.0651 µM) | 0.39 (≈ 1.02 µM) | 1.56 (≈ 4.06 µM) | 0.025 (≈ 0.0651 µM) | 0.39 (≈ 1.02 µM) | 1.56 (≈ 4.06 µM) | 6.25 (≈ 16.3 µM) | 0.78 (≈ 2.03 µM) | 0.1 (≈ 0.261 µM) | 0.1 (≈ 0.261 µM) | Number of convulsion induced / Number of animals (Male mice of ddY strain; 300 mg/kg (i.p.)): 0 / 6; MIC [19]: 0.1 µg/mL (≈ 0.261 µM); MIC [20]: 1.56 µg/mL (≈ 4.06 µM); MIC [21]: 0.78 µg/mL (≈ 2.03 µM); MIC [22]: 1.56 µg/mL (≈ 4.06 µM); MIC [23]: 1.56 µg/mL (≈ 4.06 µM); MIC [24]: 0.2 µg/mL (≈ 0.521 µM); MIC [25]: 0.1 µg/mL (≈ 0.261 µM); MIC [26]: 0.006 µg/mL (≈ 0.0156 µM)
CC1Sc2c(C(=O)O)c(=O)c3cc(F)c(N4CCC(N)C4)cc3n21 (stereo not shown) [Ref. Drug D, 7-(3-amino-1-pyrrolidinyl)-6-fluoro-1-methyl-4-oxo-1H,4H-[1,3]thiazeto[3,2-a]quinoline-3-carboxylic acid] | 0 / 6 | 0.05 (≈ 0.143 µM) | 0.1 (≈ 0.286 µM) | 0.05 (≈ 0.143 µM) | 0.05 (≈ 0.143 µM) | 0.1 (≈ 0.286 µM) | 50 (≈ 143 µM) | 0.39 (≈ 1.12 µM) | 50 (≈ 143 µM) | 0.39 (≈ 1.12 µM) | 0.1 (≈ 0.286 µM) | 3.13 (≈ 8.96 µM) | 50 (≈ 143 µM) | 0.1 (≈ 0.286 µM) | 25 (≈ 71.6 µM) | > 100 | > 100 | > 100 | 0.39 (≈ 1.12 µM) | 0.1 (≈ 0.286 µM) | Number of convulsion induced / Number of animals (Male mice of ddY strain; 300 mg/kg (i.p.)): 0 / 6; MIC [19]: 0.39 µg/mL (≈ 1.12 µM); MIC [20]: > 100 µg/mL; MIC [21]: 6.25 µg/mL (≈ 17.9 µM); MIC [22]: 1.56 µg/mL (≈ 4.46 µM); MIC [23]: > 100 µg/mL; MIC [24]: 3.13 µg/mL (≈ 8.96 µM); MIC [25]: 0.78 µg/mL (≈ 2.23 µM); MIC [26]: 0.012 µg/mL (≈ 0.0343 µM)
